Data set [1] has as its target T1, recombinant human secretory phospholipase A2 (Homo sapiens, UniProt P14555).
T1 sequence (P14555 21-144): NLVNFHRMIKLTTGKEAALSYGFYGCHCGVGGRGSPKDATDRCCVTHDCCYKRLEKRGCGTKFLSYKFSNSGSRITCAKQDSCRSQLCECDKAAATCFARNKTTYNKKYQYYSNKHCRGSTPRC
Nature of the data set: Inhibition test of human secretory phospholipase A2 (chromogenic assay, 96 well microtiterplate). Particulars: sPLA2 50 ng/well, 40° C., 30 minutes, OD 405 nm, substrate 1,2-bis(heptanoylthio)-1,2-dideoxy-sn-glycero-3-phospholylcholine. The data set is classed as biochemical. The text has this: Inhibition Test of Human Secretory Phospholipase A2
In order to identify and evaluate an inhibitor of recombinant human secretory phospholipase A2, the following chromogenic assay is utilized. The assay herein has been applied for high volume screening wherein 96 well microtiterplate is used. A general explanation for such assay is described in “Analysis of Human Synovial Fluid Phospholipase A2 on Short Chain Phosphatidylcholine-Mixed Micelles: Development of a Spectrophotometric Assay Suitable for a Micortiterplate Reader” (Analytical Biochemistry, 204, pp 190-197, 1992 by Laure. J. Reynolds. Lori L. Hughes and Edward A. Dennis: the disclosure of which is incorporated herein for reference.
Bovine Serum Albumin (fatty acid free) (1 g/L) (Sigma A-7030)
pH 7.5 (adjusted with NaOH)
pH 4.5 (adjusted with acetic acid)
1 mg of sPLA2 is dissolved in 1 ml of an enzyme buffer. Thereafter, the solution is maintained at 4° C.
In the assay, 5 μl of the solution is diluted with 1995 μl of the reaction buffer to be used.
198 mg of 5,5′-dithiobis-2-[…] (manufactured by Wako Pure Chemicals) is dissolved in 100 ml of H2O
100 mg of racemic 1,2-bis(heptanoylthio)-1,2-dideoxy-sn-glycero-3-phospholylcholine is dissolved in 1 ml of chloroform.
624.9 mg of Triton-X 100 is dissolved in the reaction buffer.
Enzyme Reaction: for 1 plate of Microtiterplate
1) 0.106 ml of the substrate solution is put in a centrifugal tube, and nitrogen gas is jetted to remove the solvent. 0.54 ml of Triton-X 100 is added thereto, the mixture is stirred, thereafter it is sonified in a bath type sonification to dissolve. To the resulting product are added 17.8 m1l of the reaction buffer and 0.46 ml of DTNB, and 0.18 ml each of the admixture is poured to wells of the 96 well microtiterplate.
2) 10 μl of a test compound (or solvent blank) are added in accordance with alignment of plates which has been previously set.
3) Incubation is effected at 40° C. for 15 minutes.
4) 20 μl of an enzyme solution (sPLA2) which has been previously diluted (50 ng/well) are added to start reaction (40° C., 30 minutes).
5) Changes in absorbancy for 30 minutes are measured by a plate reader, and inhibition activity was calculated (OD: 405 nm).
6) IC50 was determined by plotting log concentration with respect to inhibition values within 10% to 90% inhibiting range.

The structures appear in SMILES notation.

The values that follow come from patent US6472389B1, “Pyrrolo[1,2-b] pyridazine derivatives having sPLA2 inhibitory effect” (Shionogi & Co., Ltd., priority 1998, dated 2002).

In general, IC50 refers to the concentration that inhibits the measured activity by half. The melting point is the temperature, or range, at which the solid turns liquid. In turn, `CCc1c(C(=O)C(N)=O)c2c(OCC(=O)OC)cc(COc3ccc(OC)c(OC)c3)nn2c1Cc1ccccc1` [Compound I-47] returned a melting point of 176 to 179 °C. The half-maximal inhibitory concentration (IC50) in data set [1] was found to be 618 nM.

As for `CCc1c(C(=O)C(N)=O)c2c(OCC(=O)OC)cc(C3CCCC3)nn2c1Cc1ccccc1` [Compound I-38], the melting point is 160 to 162 °C (dec.). Besides, the 50% inhibitory concentration (IC50) in data set [1] was 227 nM.

As for `CCc1c(C(=O)C(N)=O)c2c(OCC(=O)OC)cc(CSc3ccccc3)nn2c1Cc1ccccc1` [Compound I-27], the melting point lay within 189 to 192 °C. Further, in data set [1], the IC50 worked out at 126 nM.

With `CCc1c(C(=O)C(N)=O)c2c(OCC(=O)OC)cc(C)nn2c1Cc1ccc(F)cc1` [Compound I-12], the melting point lay within 252 to 254 °C. Further, in data set [1], the half-maximal inhibitory concentration (IC50) was determined as 745 nM.

Turning to `CCc1c(C(=O)C(N)=O)c2c(OCC(=O)O)cc(C)nn2c1Cc1ccccc1-c1ccc(F)cc1` [Compound I-84], the melting point is 214 to 216 °C (dec.). Also, the IC50 in data set [1] was 8 nM.

Take `COC(=O)COc1cc(C)nn2c(Cc3ccc(-c4ccccc4)cc3)c(C)c(C(=O)C(N)=O)c12` [Compound I-53]: the melting point fell in the range of 234 to 236 °C. Also, the half-maximal inhibitory concentration (IC50) in data set [1] turned out to be 3740 nM.

`CCc1c(C(=O)C(N)=O)c2c(OCC(=O)OC)cc(COc3ccc(F)cc3)nn2c1Cc1ccccc1` [Compound I-7] came in with a melting point of 178 to 179 °C. For the same molecule, the half-maximal inhibitory concentration (IC50) in data set [1] amounted to 223 nM.

In the case of `CCc1cc(OCC(=O)OC)c2c(C(=O)C(N)=O)c(C)c(Cc3ccccc3)n2n1` [Compound I-40], the melting point was 194 to 196 °C. For the same molecule, in data set [1], the IC50 worked out at 99 nM.

On to `CCc1c(C(=O)C(N)=O)c2c(OCC(=O)OC)cc(C(F)(F)F)nn2c1Cc1ccc(F)cc1` [Compound I-14], for which the melting point lay within 200 to 202 °C. Further, the 50% inhibitory concentration (IC50) in data set [1] amounted to 883 nM.

In the case of `CCc1c(C(=O)C(N)=O)c2c(OCC(=O)OCc3ccccc3)cc(CN=[N+]=[N-])nn2c1Cc1ccccc1` [Compound I-50], the melting point fell in the range of 178 to 179 °C. Moreover, the half-maximal inhibitory concentration (IC50) in data set [1] was 526 nM.

With `CCc1c(C(=O)C(N)=O)c2c(OCC(=O)O)cc(CN=[N+]=[N-])nn2c1Cc1ccccc1` [Compound I-80], the melting point was 199 to 200 °C (dec.). In addition, in data set [1], the IC50 was 13 nM.

Take `CCc1c(C(=O)C(N)=O)c2c(OCC(=O)OC)cc(-c3ccc4c(c3)OCO4)nn2c1Cc1ccccc1` [Compound I-39]: the melting point is 245 to 247 °C (dec.). Moreover, the IC50 in data set [1] came to 79 nM.

On to `Cc1c(C(=O)C(N)=O)c2c(OCC(=O)O)cc(-c3ccccc3)nn2c1Cc1ccccc1` [Compound I-17], for which the melting point is 253 to 254 °C (dec.). For the same molecule, the IC50 in data set [1] is 7 nM.

`CCc1c(C(=O)C(N)=O)c2c(OCC(=O)OC)cc(C)nn2c1Cc1ccccc1-c1ccc(F)cc1` [Compound I-54] displayed a melting point of 190 to 192 °C. Moreover, the IC50 in data set [1] was found to be 148 nM.

For the molecule `COCc1cc(OCC(=O)OC)c2c(C(=O)C(N)=O)c(C)c(Cc3ccccc3)n2n1` [Compound I-44], the melting point was 228 to 229 °C (dec.). Also, the concentration for half-maximal inhibition (IC50) in data set [1] came out at 315 nM.

As to `CCc1c(C(=O)C(N)=O)c2c(OCC(=O)O)cc(C)nn2c1Cc1ccccc1-c1ccccc1` [Compound I-65], the melting point was 218 to 219 °C (dec.). Besides, the half-maximal inhibitory concentration (IC50) in data set [1] turned out to be 7 nM.

For the molecule `COC(=O)COc1cc(-c2ccccc2)nn2c(Cc3ccccc3)c(C)c(C(=O)C(N)=O)c12` [Compound I-45], the melting point lay in the range of 251 to 252 °C. The IC50 in data set [1] worked out at 30 nM.

As to `Cc1cc(OCC(=O)OCCN2CCOCC2)c2c(C(=O)C(N)=O)c(C)c(Cc3ccccc3)n2n1` [Compound I-56], the melting point is 160 to 161 °C. Besides, the IC50 in data set [1] amounted to 52 nM.

For `CCc1c(C(=O)C(N)=O)c2c(OCC(=O)O)cc(-c3ccccc3)nn2c1Cc1ccccc1` [Compound I-21], the melting point is 244 to 246 °C (dec.). Besides, in data set [1], the IC50 amounted to 6 nM.

For `CCc1c(C(=O)C(N)=O)c2c(OCC(=O)O)cc(-c3ccccc3)nn2c1Cc1ccccc1F` [Compound I-25], the melting point fell in the range of 252 to 254 °C. The IC50 in data set [1] worked out at 6 nM.

`CCc1c(C(=O)C(N)=O)c2c(OCC(=O)O)cc(COc3ccc(OC)c(OC)c3)nn2c1Cc1ccccc1` [Compound I-77]: the melting point fell in the range of 204 to 206 °C. In addition, the concentration for half-maximal inhibition (IC50) in data set [1] is 10 nM.

Regarding `CCc1c(C(=O)C(N)=O)c2c(OCC(=O)O)cc(CN3CCOCC3)nn2c1Cc1ccccc1` [Compound I-60], the melting point is 167 to 168 °C. The concentration for half-maximal inhibition (IC50) in data set [1] was found to be 365 nM.

Turning to `CCc1c(C(=O)C(N)=O)c2c(OCC(=O)O)cc(C(F)(F)F)nn2c1Cc1ccc(F)cc1` [Compound I-24], the melting point was 248 to 250 °C. Further, in data set [1], the IC50 came out at 21 nM.

On to `CCc1cc(OCC(=O)O)c2c(C(=O)C(N)=O)c(C)c(Cc3ccccc3)n2n1` [Compound I-70], for which the melting point is 200 to 201 °C. For the same molecule, in data set [1], the IC50 was found to be 9 nM.

In the case of `COC(=O)COc1cc(CSC)nn2c(Cc3ccccc3)c(C)c(C(=O)C(N)=O)c12` [Compound I-43], the melting point was 210 to 211 °C. Also, in data set [1], the IC50 was determined as 154 nM.

Regarding `CCc1c(C(=O)C(N)=O)c2c(OCC(=O)OC)ccnn2c1Cc1ccccc1` [Compound I-1, Methyl (5-aminooxalyl-7-benzyl-6-ethylpyrrolo[1,2-b]pyridazine-4-yloxy)acetate], the melting point lay within 210 to 212 °C. For the same molecule, in data set [1], the IC50 is 248 nM.

As to `Cc1cc(OCC(=O)O)c2c(C(=O)C(N)=O)c(C)c(Cc3ccccc3-c3ccc(F)cc3)n2n1` [Compound I-82], the melting point was 242 to 244 °C (dec.). In addition, the IC50 in data set [1] stood at 93 nM.

`CCc1c(C(=O)C(N)=O)c2c(OCC(=O)O)cc(C)nn2c1Cc1ccc(F)cc1` [Compound I-22] had a melting point of 238 to 240 °C. For the same molecule, the IC50 in data set [1] is 22 nM.

Take `CCc1c(C(=O)C(N)=O)c2c(OCC(=O)OC)cc(C3CCCCC3)nn2c1Cc1ccccc1` [Compound I-37]: the melting point is 207 to 209 °C (dec.). Also, the 50% inhibitory concentration (IC50) in data set [1] worked out at 212 nM.

Consider `CCc1c(C(=O)C(N)=O)c2c(OCC(=O)OC)cc(-c3ccc(F)cc3)nn2c1Cc1ccccc1` [Compound I-33], for which the melting point was 249 to 253 °C (dec.). Also, the half-inhibitory concentration (IC50) in data set [1] came out at 72 nM.

Consider `Cc1c(C(=O)C(N)=O)c2c(OCC(=O)O)cc(Cc3ccccc3)nn2c1Cc1ccccc1` [Compound I-72], for which the melting point was 245 to 247 °C (dec.). The IC50 in data set [1] was determined as 9 nM.

Turning to `CCc1cc(OCC(=O)OC)c2c(C(=O)C(N)=O)c(CC)c(Cc3ccccc3)n2n1` [Compound I-8], the melting point is 183 to 185 °C. In addition, the IC50 in data set [1] was 184 nM.

On to `CCc1c(C(=O)C(N)=O)c2c(OCC(=O)OC)cc(-c3ccc(OC)cc3)nn2c1Cc1ccccc1` [Compound I-34], for which the melting point was 215 to 217 °C (dec.). In addition, in data set [1], the IC50 stood at 58 nM.

For `COC(=O)COc1cc(Cc2ccccc2)nn2c(Cc3ccccc3)c(C)c(C(=O)C(N)=O)c12` [Compound I-42], the melting point lay within 204 to 206 °C. In addition, in data set [1], the IC50 was determined as 26 nM.

`CCc1c(C(=O)C(N)=O)c2c(OCC(=O)OC)cc(COc3ccc(OC)cc3)nn2c1Cc1ccccc1` [Compound I-46] showed a melting point of 167 to 168 °C. Moreover, the half-inhibitory concentration (IC50) in data set [1] was found to be 268 nM.

`CCc1c(C(=O)C(N)=O)c2c(OCC(=O)O)cc(-c3ccc(F)cc3)nn2c1Cc1ccccc1` [Compound I-63]: the melting point is 250 to 253 °C (dec.). For the same molecule, the IC50 in data set [1] came out at 6 nM.

`CCOC(=O)COc1cc(C)nn2c(Cc3ccccc3)c(C)c(C(=O)C(N)=O)c12` [Compound I-55] gave a melting point of 197 to 199 °C. Moreover, the half-maximal inhibitory concentration (IC50) in data set [1] stood at 56 nM.

Molecule `CCc1c(C(=O)C(N)=O)c2c(OCC(=O)OC)cc(-c3ccccc3)nn2c1Cc1ccc(F)cc1` [Compound I-13] showed a melting point of 253 to 255 °C. Further, in data set [1], the IC50 worked out at 238 nM.

Take `Cc1cc(OCC(=O)O)c2c(C(=O)C(N)=O)c(C)c(Cc3ccc(-c4ccccc4)cc3)n2n1` [Compound I-83]: the melting point was 271 to 276 °C (dec.). For the same molecule, the IC50 in data set [1] is 83 nM.
